We go through 17 compounds from patent US8101782B2, “Compounds that inhibit cholinesterase” (priority 2007, dated 2012).

The subject of data set [1] is male CD IGS (Sprague Dawley derived) rats. The data set can be described thus: Determination of the dose range and time course for cholinergic effects (gross signs, salivation). As to conditions: s.c., doses 1, 3, 10, 30 and 100 mg/kg; observed up to 4 hours. The procedure:
The induction of hypothermia was determined for compounds of the invention according to the methods described in Freedman, et al., European Journal of Pharmacology, 187 (1990), 193-199, which is incorporated by reference herein. Dose range and time course for cholinergic effects of the compounds of the invention was also determined.
(§1) The dose range and time course for cholinergic effects of the compounds of the invention was determined as described below.
(§2) Subjects: Two hundred eight male CD IGS (Sprague Dawley derived) rats were received at 126-150 grams and maintained four per cage on a regular light/dark cycle (lights on 0600-1800) with ad libitum food and water for about 1 week before commencement of experimentation. Apparatus: Injection was done with a 25-gauge ⅝-inch needle on a 1-mL tuberculin syringe. Observation was done in a 5½-×10-inch polycarbonate rat housing cage. Temperature was taken with a rat rectal probe on a Model BAT-12 electronic thermometer. Compound Preparation: Test compounds were dissolved for example, in 0.9% saline. Concentrations for lower doses were prepared by taking aliquots from higher concentrations and diluting. Injection volumes were 1 mL/kg, if the test compound was sufficiently soluble. If less soluble, maximum injection volume were 5 mL/kg. Route of administration was s.c. As sample protocol is as follows: Treatment Groups included (N=3, with 6 for Saline)
(§3) Procedure: The rats were brought to the test room in the home cage. Baseline temperature were be taken just before injection. After injection s.c., the rat was placed in the observation cage. At 0.5, 1, 2, and 4 hours after injection, it was observed briefly for gross signs; salivation was scored as absent, clearly present, or copious; and rectal temperature was taken. In observation for gross signs, special attention was paid to fasciculation (muscle twitch), tremor/ataxia, and abnormal gait.

Data set [2] has the same test system. The experiment in a line: Measurement of hypothermia (rectal temperature). The class given is in vivo. As to conditions: Rattus norvegicus, sc, read-out: Hypothermia MED. The procedure:
The induction of hypothermia was determined for compounds of the invention according to the methods described in Freedman, et al., European Journal of Pharmacology, 187 (1990), 193-199, which is incorporated by reference herein. Dose range and time course for cholinergic effects of the compounds of the invention was also determined. […]
as §1, §2, §3

The target of a further data set is BuChE (Homo sapiens, UniProt P06276). The data set can be described thus: In vitro screening assay, BuChE inhibition. The class given is biochemical. As to conditions: for BuChEI (%) 1 μM: 1 μM compound; for BuChEI (%) 10 μM: 10 μM compound. An excerpt:
An in vitro screening assay with compounds of the invention was completed according to the methods described in Ellman G L et al., Biochem Pharmacol., 7:88-95 (1961) and in Nadarajah B, J. Anal. Toxicol., 16:192-193 (1992), both of which are herein incorporated by reference in their entireties.
An in vitro screening assay with compounds of the invention was completed according to the methods described in Ellman G L et al., Biochem Pharmacol., 7:88-95 (1961) and in Nadarajah B, J. Anal. Toxicol., 16:192-193 (1992), both of which are herein incorporated by reference in their entireties. The assay method was completed according to the following: […]

The target of another data set is AChE (Homo sapiens, UniProt P22303). The experiment in a line: In vitro screening assay, AChE inhibition (spectrophotometric quantitation of thiocholine). The class given is biochemical. As to conditions: 700 μM acetylthiocholine, pH 7.4, 25° C.; for AChEI (%) 1 μM: 1 μM compound; for AChEI (%) 10 μM: 10 μM compound.
Chain of AChE (P22303 32-614): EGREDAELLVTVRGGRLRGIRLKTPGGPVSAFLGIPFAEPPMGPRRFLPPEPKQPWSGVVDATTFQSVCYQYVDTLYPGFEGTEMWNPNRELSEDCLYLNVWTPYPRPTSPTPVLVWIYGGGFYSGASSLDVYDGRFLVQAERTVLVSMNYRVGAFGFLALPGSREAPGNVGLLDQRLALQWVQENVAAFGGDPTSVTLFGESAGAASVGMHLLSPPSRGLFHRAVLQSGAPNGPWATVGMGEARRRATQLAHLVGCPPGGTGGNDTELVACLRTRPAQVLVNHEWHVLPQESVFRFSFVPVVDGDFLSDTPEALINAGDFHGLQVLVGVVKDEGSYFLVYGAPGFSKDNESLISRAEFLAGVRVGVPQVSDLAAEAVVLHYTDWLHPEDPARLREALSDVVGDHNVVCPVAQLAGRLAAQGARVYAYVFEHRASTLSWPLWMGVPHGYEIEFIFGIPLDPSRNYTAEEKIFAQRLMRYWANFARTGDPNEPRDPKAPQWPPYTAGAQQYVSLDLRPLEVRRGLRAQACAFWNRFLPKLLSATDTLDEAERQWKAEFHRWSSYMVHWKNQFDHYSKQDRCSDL
For data set [3], the target named is T1, human recombinant acetylcholinesterase (Homo sapiens, UniProt P22303).
T1 construct: purchased Sigma Chemical Co (St. Louis, Mo.) C1682
T1 sequence (P22303 32-614): as above
The data set can be described thus: Inhibition of acetylcholinesterase in vitro (modified Ellman colorimetric method, Dixon plot). The class given is biochemical. As to conditions: human recombinant AChE, 25° C., 30 minutes preincubation, 0.3 mM acetylthiocholine, pH 8.

Where [4] appears, read: minimum effective dose for hypothermia, s.c., temperature at 0.5, 1, 2 and 4 hours after injection.

Read-outs that look alike come from different tables or passages of the source.

Chain of BuChE (P06276 29-602): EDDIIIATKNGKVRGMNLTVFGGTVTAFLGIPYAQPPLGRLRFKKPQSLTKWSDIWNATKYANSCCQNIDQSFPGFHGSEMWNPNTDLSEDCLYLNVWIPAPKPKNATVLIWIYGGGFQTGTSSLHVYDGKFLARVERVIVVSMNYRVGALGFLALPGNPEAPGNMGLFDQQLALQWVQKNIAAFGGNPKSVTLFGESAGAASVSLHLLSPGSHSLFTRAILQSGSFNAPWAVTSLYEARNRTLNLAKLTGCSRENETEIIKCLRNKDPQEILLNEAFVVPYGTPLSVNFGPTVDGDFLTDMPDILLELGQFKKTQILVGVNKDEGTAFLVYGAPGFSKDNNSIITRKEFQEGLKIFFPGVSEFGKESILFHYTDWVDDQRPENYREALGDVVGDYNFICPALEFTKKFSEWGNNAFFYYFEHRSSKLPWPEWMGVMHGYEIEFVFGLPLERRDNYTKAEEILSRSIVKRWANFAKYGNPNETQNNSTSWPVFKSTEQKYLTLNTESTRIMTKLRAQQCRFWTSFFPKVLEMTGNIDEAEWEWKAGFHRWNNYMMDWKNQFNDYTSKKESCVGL

Take `C[C@@H](c1cccc(OC(=O)N(C)CCC=C2c3ccccc3CCc3ccccc32)c1)N(C)C` [Compound 5, S-rivastigmine-nortriptyline]: the “Max Tolerated Dose” value in data set [1] is reported as “≧100”. The minimal effective dose in data set [2] (setting [4]) was not above 1 mg/kg.

On to `CC(CC1CCCCC1)N(C)C(=O)Oc1cccc([C@H](C)N(C)C)c1` (stereo partly shown) [Compound 13, S-rivastigmine-propylhexedrine], for which, at BuChE, the “BuChEI (%) 1 μM” value was determined as 37% and the “BuChEI (%) 10 μM” value stood at 100%. The minimal effective dose in data set [2] (setting [4]) is 10 mg/kg. On AChE, the “AChEI (%) 1 μM” value was found to be 62% and the “AChEI (%) 10 μM” value was found to be 99%.

For `C[C@@H](c1cccc(OC(=O)N2CCC(=C3c4ccc(Cl)cc4CCc4cccnc43)CC2)c1)N(C)C` [Compound 15, S-rivastigmine-desloratidine], the “Max Tolerated Dose” value in data set [1] was “≧100”. Moreover, at BuChE, the “BuChEI (%) 10 μM” value came out at 6%. For the same compound, the minimal effective dose in data set [2] was 3 mg/kg. Moreover, the IC50 in data set [3] was determined as 12.5 µM. For the same compound, the “AChEI (%) 10 μM” value at AChE amounted to 36%.

Take `C[C@@H](c1cccc(OC(=O)N[C@@H]2C[C@H]2c2ccccc2)c1)N(C)C` [Compound 2, S-rivastigmine-tranylcypromine]: in data set [1], the “Max Tolerated Dose” value came to 30. Besides, at BuChE, the “BuChEI (%) 1 μM” value is reported as 23% and the “BuChEI (%) 10 μM” value was 67%. For the same compound, the minimal effective dose in data set [2] (setting [4]) came out at 10 mg/kg. Also, the IC50 in data set [3] was determined as 0.2 µM. Moreover, on AChE, the “AChEI (%) 1 μM” value was determined as 84% and the “AChEI (%) 10 μM” value is 97%.

Turning to `CCN(C)C(=O)Oc1cccc([C@H](C)N(C)C)c1` [Compound 1, S-rivastigmine, reference compound], the minimal effective dose in data set [2] (setting [4]) is not above 0.1 mg/kg.

Turning to `C[C@@H](c1cccc(OC(=O)N[C@@]23CC4C[C@@](C)(C[C@@](C)(C4)C2)C3)c1)N(C)C` [Compound 17, S-riva memantine], the IC50 in data set [3] amounted to 5.8 µM.

As to `C[C@@H](c1cccc(OC(=O)N(C)CCc2ccccn2)c1)N(C)C` [Compound 11, S-rivastigmine-betahistine], the “Max Tolerated Dose” value in data set [1] was 30. At BuChE, the “BuChEI (%) 1 μM” value stood at 45% and the “BuChEI (%) 10 μM” value is given as 100%. In addition, in data set [2], the minimal effective dose was less than 1 mg/kg. In data set [3], the IC50 was found to be 13.3 µM. Moreover, the “AChEI (%) 10 μM” value at AChE is listed as 47%.

`C[C@@H](c1cccc(OC(=O)N(C)CCCC2c3ccccc3C=Cc3ccccc32)c1)N(C)C` [Compound 6, S-rivastigmine-protriptyline]: the minimal effective dose in data set [2] (setting [4]) amounted to 100 mg/kg.

Consider `CCOC(=O)C1=C(COCCNC(=O)Oc2cccc([C@H](C)N(C)C)c2)NC(C)=C(C(=O)OC)C1c1ccccc1Cl` (stereo partly shown) [Compound 12, S-rivastigmine-amlodipine], for which, at BuChE, the “BuChEI (%) 10 μM” value turned out to be 6%. For the same compound, the IC50 in data set [3] came out at 3.7 µM. Moreover, on AChE, the “AChEI (%) 1 μM” value is listed as 20% and the “AChEI (%) 10 μM” value was found to be 79%.

Turning to `C[C@@H](c1cccc(OC(=O)N2CCN(c3cc4c(cc3F)c(=O)c(C(=O)O)cn4C3CC3)CC2)c1)N(C)C` [Compound 20, S-riva ciprofloxacin], the IC50 in data set [3] came to 53.6 µM.

Take `C[C@@H](c1cccc(OC(=O)N2CCN(C3=Nc4ccccc4Oc4ccc(Cl)cc43)CC2)c1)N(C)C` [Compound 3, S-rivastigmine-amoxapine]: the minimal effective dose in data set [2] (setting [4]) was found to be 10 mg/kg.

Take `C[C@@H](c1cccc(OC(=O)NC23CC4CC(CC(C4)C2)C3)c1)N(C)C` [Compound 16, S-riva- amantadine]: in data set [3], the IC50 is 72.1 µM.

For `CC(NC(=O)Oc1cccc([C@H](C)N(C)C)c1)C12CC3CC(CC(C3)C1)C2` (stereo partly shown) [Compound 14, S-rivastigmine-rimantadine], the “BuChEI (%) 10 μM” value on BuChE is reported as 13%. Moreover, the IC50 in data set [3] stood at 4.5 µM. Moreover, on AChE, the “AChEI (%) 1 μM” value turned out to be 28% and the “AChEI (%) 10 μM” value is on record as 77%.

`CC(C)C[C@@H](CNC(=O)Oc1cccc([C@H](C)N(C)C)c1)CC(=O)O` [Compound 18, S-riva pregabalin]: the IC50 in data set [3] stood at 24.9 µM.

In the case of `C[C@@H](c1cccc(OC(=O)NCC(CC(=O)O)c2ccc(Cl)cc2)c1)N(C)C` (stereo partly shown) [Compound 19, S-riva baclofen], the IC50 in data set [3] was found to be 16.9 µM.

Consider `C[C@@H](c1cccc(OC(=O)N(C)CCCN2c3ccccc3CCc3ccccc32)c1)N(C)C` [Compound 4, S-rivastigmine-desipramine], for which the minimal effective dose in data set [2] (setting [4]) turned out to be 3 mg/kg.

In the case of `C[C@@H](c1cccc(OC(=O)N(C)CCC(Oc2ccc(C(F)(F)F)cc2)c2ccccc2)c1)N(C)C` (stereo partly shown) [Compound 7, S-rivastigmine-fluoxetine], in data set [2] (setting [4]), the minimal effective dose is 3 mg/kg.
